In brackets after ≈: the same amount, converted by molar mass.
Assays:
[1] = biological target: ERα receptor in MCF-7 human ductal carcinoma breast cell line (Homo sapiens (Human), UniProt P03372); assay: MCF-7 ER down regulation assay (immuno-fluorescence); type: cell-based; conditions: MCF-7 cells, 18-22 hours incubation; read-out: ER down regulation IC50 value
Procedure: MCF-7 ER Down Regulation Assay
The ability of compounds to down-regulate Estrogen Receptor (ER) numbers was assessed in a cell based immuno-fluorescence assay using the MCF-7 human ductal carcinoma breast cell line. MCF-7 cells were revived directly from a cryovial (approx 5×10^6 cells) in Assay Medium (phenol red free Dulbecco's Modified Eagle's medium (DMEM) (Sigma D5921) containing 2mM L-Glutamine and 5% (v/v) Charcoal/Dextran treated foetal calf serum. Cells were syringed once using a sterile 18 G×1.5 inch (1.2×40 mm) broad gauge needle and cell density was measured using a Coulter Counter (Beckman). Cells were further diluted in Assay Medium to a density of 3.75×10^4 cells per mL and 40 μL per well added to transparent bottomed, black, tissue culture treated 384 well plates (Costar, No. 3712) using a Thermo Scientific Matrix WellMate or Thermo Multidrop. Following cell seeding, plates were incubated overnight at 37° C., 5% CO2 (Liconic carousel incubator). Test data was generated using the LabCyte Echo™ model 555 compound reformatter which is part of an automated workcell (Integrated Echo 2 workcell). 10 mM compound stock solutions of the test compounds were used to generate a 384 well compound dosing plate (Labcyte P-05525-CV1). […] 40 μΛ of DMSO added to wells in row P on the source plate allow for DMSO normalisation across the dose range. To dose the control wells 40 μL of DMSO was added to row O1 and 40 μL of 100 μM fulvestrant in DMSO was added to row O3 on the compound source plate. […] Compounds were dispensed onto the cell plates with a compound source plate prepared as above producing a 12 pt duplicate 3 μM to 3 pM dose range with 3 fold dilutions and one final 10 fold dilution using the Integrated Echo 2 workcell. […] Cells were fixed at room temperature for 20 mins before being washed two times with 250 μL PBS/Proclin (PBS with a Biocide preservative) using a BioTek platewasher, 40 μL of PBS/Proclin was then added to all wells and the plates stored at 4° C. The fixing method described above was carried out on the Integrated Echo 2 workcell. Immunostaining was performed using an automated AutoElisa workcell. The PBS/Proclin was aspirated from all wells and the cells permeabilised with 40 μL PBS containing 0.5% Tween™ 20 (v/v) for 1 hour at room temperature. The plates were washed three times in 250 μL of PBS/0.05% (v/v) Tween 20 with Proclin (PBST with a Biocide preservative) and then 20 μL of ERα (SP1) Rabbit monoclonal antibody (Thermofisher) 1:1000 in PBS/Tween™/3% (w/v) Bovine Serum Albumin was added. The plates were incubated overnight at 4° C. (Liconic carousel incubator) and then washed three times in 250 μL of PBS/0.05% (v/v) Tween™ 20 with Proclin (PBST). The plates were then incubated with 20 μL/well of a goat anti-rabbit IgG AlexaFluor 594 or goat anti-rabbit AlexaFluor 488 antibody (Molecular Probes) with Hoechst at 1:5000 in PBS/Tween™/3% (w/v) Bovine Serum Albumin for lhour at room temperature. The plates were then washed three times in 250 μL of PBS/0.05% (v/v) Tween™ 20 with Proclin (PBST with a Biocide preservative). 20 μL of PBS was added to each well and the plates covered with a black plate seal and stored at 4° C. before being read. Plates were read using a Cellomics Arrayscan reading the 594 nm (24 hr time point) or 488 nm (5 hr timepoint) fluorescence to measure the ERα receptor level in each well. The mean total intensity was normalized for cell number giving the total intensity per cell.

[2] = Human hepatocyte assay (metabolic stability); type: in vitro ADME; conditions: human hepatocytes, 37° C., 1.0×10^6 viable cells/mL; read-out: Clint (in vitro intrinsic clearance)
Procedure: The metabolic stability of compounds in human hepatocytes was assessed using the following protocol: • 1. Prepare 10 mM stock solutions of compound and control compounds in appropriate solvent (DMSO). Place incubation medium (L-15Medium) in a 37° C. water bath, and allow warming for at least 15 minutes prior to use. • 2. Add 80 μL of acetonitrile to each well of the 96-well deep well plate (quenching plate). • 3. In a new 96-well plate, dilute the 10 mM test compounds and the control compounds to 100 μM by combining 198 μL of acetonitrile and 2 μL of 10 mM stock. • 4. Remove a vial of cryopreserved (less than −150° C.) human hepatocytes (LiverPool™ 10 Donor Human hepatocytes obtained from Celsis IVT. Chicago, Ill. (Product No. S01205)) from storage, ensuring that vials remain at cryogenic temperatures until thawing process ensues. As quickly as possible, thaw the cells by placing the vial in a 37° C. water bath and gently shaking the vials. Vials should remain in water bath until all ice crystals have dissolved and are no longer visible. After thawing is completed, spray vial with 70% ethanol, transfer the vial to a bio-safety cabinet. • 5. Open the vial and pour the contents into the 50 mL conical tube containing thawing medium. Place the 50 mL conical tube into a centrifuge and spin at 100 g for 10 minutes. […] Using Cellometer® Vision, count cells and determine the viable cell density. Cells with poor viability (<80% viability) are not acceptable for use. Dilute cells with incubation medium to a working cell density of 1.0×10^6 viable cells/mL. • 7. Transfer 247.5 μL of hepatocytes into each well of a 96-well cell culture plate. Place the plate on Eppendorf Thermomixer Comfort plate shaker to allow the hepatocytes to warm for 10 minutes. • 8. Add 2.5 μL of 100 μM test compound or control compounds into an incubation well containing cells, mix to achieve a homogenous suspension at 0.5 min, which when achieved, will define the 0.5 min time point. At the 0.5 min time, transfer 20 μL incubated mixture to wells in a “Quenching plate” followed by vortexing. • 9. Incubate the plate at 37° C. at 900 rpm on an Eppendorf Thermomixer Comfort plate shaker. At 5, 15, 30, 45, 60, 80, 100 and 120 min, mix the incubation system and transfer samples of 20 μL incubated mixture at each time point to wells in a separate “Quenching plate” followed by vortexing. • 10. Centrifuge the quenching plates for 20 minutes at 4,000 rpm. 4 different compounds are pooled into one cassette and used for LC/MS/MS analysis.
All calculations are carried out using Microsoft Excel. Peak areas are determined from extracted ion chromatograms. In vitro intrinsic clearance (in vitro Clint, in μL/min/10^6 cells) of parent compound is determined by regression analysis of the Ln percent parent disappearance vs. time curve. The in vitro intrinsic clearance (in vitro Clint, in μL/min/10^6 cells) is determined from the slope value using the following equation and is shown in Table C:
V=incubation volume (0.25 mL);
N=number of hepatocytes per well (0.25×10 ^6 cells).

[3] = Thermodynamic solubility, shake-flask; type: physicochemical; conditions: thermodynamic from solid; aqueous phosphate buffer pH 7.4, 24 hours at 25° C.
Procedure: The thermodynamic solubility of a research compound is measured under standard conditions. It is a shake-flask approach that uses 10 mM DMSO solutions which are supplied from the Compound Managements liquid store and is a high throughput method. The dried compounds are equilibrated in an aqueous phosphate buffer (pH 7.4) for 24 hours at 25° C., the portion with the dissolved compound is then separated from the remains. The solutions are analyzed and quantified using UPLC/MS/MS, QC-samples are incorporated in each assay-run to ensure the quality of the assay.

[4] = Human plasma protein binding, equilibrium dialysis (RED); type: in vitro ADME; conditions: dialysis for 18 hours
Procedure: Human Plasma Protein Binding
The automated equilibrium dialysis assay in human plasma uses the RED (Rapid Equilibrium Dialysis) Device and sample handling. The assay generally runs over two to three days including delivery of results. After dialysis for 18 hours, plasma and buffer samples are prepared for analysis by liquid chromatography and mass spectrometry. Samples are generally tested in singlicates and quantified by LC/MSMS by using a 7-point calibration curve in plasma. The compounds are pooled together in plasma pools up to 10 compounds. Three reference compounds are used in each run, Propranolol, Metoprolol and Warfarin. Warfarin is used as a control in each pool and Propranolol and Metoprolol are placed randomly in each run. An in-house Excel macro is used for preparation of files for the robot and the mass spectrometer and also used for the calculations of fraction unbound (fu %) in plasma.

[5] = logD shake flask, 1-octanol/aqueous buffer; type: physicochemical; conditions: pH 7.4
Excerpt: The lipophilicity of a drug is an important physical property which may influence many biological and metabolic properties of a compound. The distribution coefficient between 1-octanol and aqueous buffer, Log DO/W, at pH 7.4, is the most commonly used measurement of the lipophilicity of a compound. The current method for measurement of Log DO/W is based on the traditional shake flask technique, but with the modification of measuring compounds in mixtures of ten at a time using UPLC with quantitative mass spectrometry (MS) as a method to measure the relative octanol and aqueous concentrations. […] An additional QC sample Caffeine, with low Log D, are used and randomly placed in all runs. The method has been thoroughly validated against the previous shake flask methodologies.

ERα receptor in MCF-7 human ductal carcinoma breast cell line, sequence (P03372 whole entry): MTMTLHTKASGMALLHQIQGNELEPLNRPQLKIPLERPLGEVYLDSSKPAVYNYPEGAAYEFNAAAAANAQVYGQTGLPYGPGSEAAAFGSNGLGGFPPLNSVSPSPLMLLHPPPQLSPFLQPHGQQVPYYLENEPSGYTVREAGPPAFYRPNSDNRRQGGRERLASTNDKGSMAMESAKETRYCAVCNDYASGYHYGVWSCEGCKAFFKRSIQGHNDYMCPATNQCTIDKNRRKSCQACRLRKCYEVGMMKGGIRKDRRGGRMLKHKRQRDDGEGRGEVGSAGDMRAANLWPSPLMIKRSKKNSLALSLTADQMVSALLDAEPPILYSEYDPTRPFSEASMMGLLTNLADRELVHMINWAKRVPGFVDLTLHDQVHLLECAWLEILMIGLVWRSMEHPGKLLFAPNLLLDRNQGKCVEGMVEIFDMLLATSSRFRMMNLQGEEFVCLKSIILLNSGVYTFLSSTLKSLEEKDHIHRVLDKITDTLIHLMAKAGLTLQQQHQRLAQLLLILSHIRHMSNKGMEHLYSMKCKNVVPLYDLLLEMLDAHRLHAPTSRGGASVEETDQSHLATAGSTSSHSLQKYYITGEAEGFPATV

Row | Compound | DC50 [1] [nM] | solubility at 24 h [3] [µM] | Human plasma protein binding (% free) [4] [% free] | logD [5] | hepatocyte CLint at 1 µM [2] [µL/min/1e6 cells]
1 | CC(C)CN1[C@H](c2ccc(OCCN3CC(CF)C3)cc2)c2ccc3[nH]ncc3c2C[C@H]1C [Example 28, (6R,8R)-6-(4-(2-(3-(fluoromethyl)azetidin-1-yl)ethoxy)phenyl)-7-isobutyl-8-methyl-6,7,8,9-tetrahydro-3H-pyrazolo[4,3-f]isoquinoline] | 0.14 | – | – | – | 8
2 | C[C@@H]1Cc2c(ccc3[nH]ncc23)[C@@](C)(c2ccc(OCCN3CC(CF)C3)cc2)N1CC1(F)COC1 [Example 32, (6R,8R)-6-(4-(2-(3-(fluoromethyl)azetidin-1-yl)ethoxy)phenyl)-7-((3-fluorooxetan-3-yl)methyl)-6,8-dimethyl-6,7,8,9-tetrahydro-3H-pyrazolo[4,3-f]isoquinoline] | 0.076 | – | – | – | 29
3 | CC(C)(F)CN1[C@H](c2c(F)cc(OCCN3CC(CF)C3)cc2F)c2ccc3[nH]ncc3c2C[C@H]1C(F)F [Example 3, (6S,8S)-6-(2,6-difluoro-4-(2-(3-(fluoromethyl)azetidin-1-yl)ethoxy)phenyl)-8-(difluoromethyl)-7-(2-fluoro-2-methylpropyl)-6,7,8,9-tetrahydro-3H-pyrazolo[4,3-f]isoquinoline] | 0.16 | – | – | – | 16

Further compounds by falling DC50 [1], results first:

Row | DC50 [1] [nM] | solubility at 24 h [3] [µM] | Human plasma protein binding (% free) [4] [% free] | logD [5] | Compound | hepatocyte CLint at 1 µM [2] [µL/min/1e6 cells]
4 | 0.5 | 1000 (≈ 495 µg/mL) | 20 | 2.8 | C[C@@H]1Cc2c(ccc3[nH]ncc23)[C@@H](c2ncc(OCCN3CC(CF)C3)cc2F)N1CC(F)(F)F [Example 50, (6S,8R)-6-(3-fluoro-5-(2-(3-(fluoromethyl)azetidin-1-yl)ethoxy)pyridin-2-yl)-8-methyl-7-(2,2,2-trifluoroethyl)-6,7,8,9-tetrahydro-3H-pyrazolo[4,3-f]isoquinoline] | –
5 | 0.26 | – | – | – | C[C@@H]1Cc2c(ccc3[nH]ncc23)[C@@H](c2c(F)cc(OCCN3CC(C(F)F)C3)cc2F)N1CC(C)(C)F [Example 38, (6S,8R)-6-(4-(2-(3-(difluoromethyl)azetidin-1-yl)ethoxy)-2,6-difluorophenyl)-7-(2-fluoro-2-methylpropyl)-8-methyl-6,7,8,9-tetrahydro-3H-pyrazolo[4,3-f]isoquinoline] | 15

Source: patent publication US10125135B2, “Chemical compounds” (AstraZeneca AB, priority 2016, dated 2018)
